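Five concentrations, 48 hours, 96-well plates. The concentration for 50% growth inhibition is given as GI50. TGI: concentration producing complete growth inhibition.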
Key:
Assay in all cases: DTP human tumour cell line panel, 48 h
U251 CNS = system: U251 CNS
NCI/ADR-RES ovarian = system: NCI/ADR-RES ovarian
TK-10 renal = system: TK-10 renal
HCT-15 colon = system: HCT-15 colon
UO-31 renal = system: UO-31 renal
HCC-2998 colon = system: HCC-2998 colon
NCI-H23 lung = system: NCI-H23 lung
SNB-19 CNS = system: SNB-19 CNS
SF-268 CNS = system: SF-268 CNS
BT-549 breast = system: BT-549 breast
CCRF-CEM leukemia = system: CCRF-CEM leukemia
KM12 colon = system: KM12 colon
RPMI-8226 leukemia = system: RPMI-8226 leukemia
NCI-H460 lung = system: NCI-H460 lung
HCT-116 colon = system: HCT-116 colon
HT29 colon = system: HT29 colon
NCI-H522 lung = system: NCI-H522 lung
LOX IMVI melanoma = system: LOX IMVI melanoma
UACC-62 melanoma = system: UACC-62 melanoma
MDA-MB-435 = system: MDA-MB-435
HL-60(TB) leukemia = system: HL-60(TB) leukemia
SW-620 colon = system: SW-620 colon
OVCAR-3 ovarian = system: OVCAR-3 ovarian
SK-MEL-2 melanoma = system: SK-MEL-2 melanoma
CAKI-1 renal = system: CAKI-1 renal
MALME-3M melanoma = system: MALME-3M melanoma
MDA-MB-231 breast = system: MDA-MB-231 breast
IGROV1 ovarian = system: IGROV1 ovarian
786-0 renal = system: 786-0 renal
EKVX NSCLC = system: EKVX NSCLC
UACC-257 melanoma = system: UACC-257 melanoma
T-47D breast = system: T-47D breast
HOP-92 NSCLC = system: HOP-92 NSCLC
K-562 leukemia = system: K-562 leukemia
NCI-H226 lung = system: NCI-H226 lung
OVCAR-8 ovarian = system: OVCAR-8 ovarian
DU-145 prostate = system: DU-145 prostate
SN12C renal = system: SN12C renal
SF-539 CNS = system: SF-539 CNS
COLO 205 colon = system: COLO 205 colon
SR leukemia = system: SR leukemia
A549 NSCLC = system: A549 NSCLC
SNB-75 CNS = system: SNB-75 CNS
MOLT-4 leukemia = system: MOLT-4 leukemia
OVCAR-4 ovarian = system: OVCAR-4 ovarian
OVCAR-5 ovarian = system: OVCAR-5 ovarian
SK-MEL-5 melanoma = system: SK-MEL-5 melanoma
A498 renal = system: A498 renal
PC-3 prostate = system: PC-3 prostate
HS 578T breast = system: HS 578T breast
SK-OV-3 ovarian = system: SK-OV-3 ovarian
MCF7 breast = system: MCF7 breast
SK-MEL-28 melanoma = system: SK-MEL-28 melanoma
M14 melanoma = system: M14 melanoma
ACHN renal = system: ACHN renal

Q: How did the GI50 (U251 CNS) turn out when O=S(=O)(c1ccc(N=C2NN=C(c3c[nH]c4ccccc34)CS2)cc1)N1CCOCC1 was run?
A: 8.48 µM

Q: And the TGI (U251 CNS)?
A: > 100 µM

Q: And the GI50 (NCI/ADR-RES ovarian)?
A: 20.6 µM

Q: And the TGI (NCI/ADR-RES ovarian)?
A: > 100 µM

Q: And the GI50 (TK-10 renal)?
A: 26.3 µM

Q: What about the TGI (TK-10 renal) of the same molecule?
A: > 100 µM

Q: What about the GI50 (HCT-15 colon) of the same molecule?
A: 8.06 µM

Q: And the TGI (HCT-15 colon)?
A: > 100 µM

Q: What about the GI50 (UO-31 renal) of the same molecule?
A: 19.1 µM

Q: What about the TGI (UO-31 renal) of the same molecule?
A: > 100 µM

Q: What about the GI50 (HCC-2998 colon) of the same molecule?
A: 24.6 µM

Q: What about the TGI (HCC-2998 colon) of the same molecule?
A: > 100 µM

Q: What about the GI50 (NCI-H23 lung) of the same molecule?
A: 18.3 µM

Q: And the TGI (NCI-H23 lung)?
A: > 100 µM

Q: What about the GI50 (SNB-19 CNS) of the same molecule?
A: 45.6 µM

Q: What about the TGI (SNB-19 CNS) of the same molecule?
A: > 100 µM

Q: What about the GI50 (SF-268 CNS) of the same molecule?
A: 73.7 µM

Q: What about the TGI (SF-268 CNS) of the same molecule?
A: > 100 µM

Q: What about the GI50 (BT-549 breast) of the same molecule?
A: 2.86 µM

Q: And the TGI (BT-549 breast)?
A: 11.3 µM

Q: And the GI50 (CCRF-CEM leukemia)?
A: 4.69 µM

Q: And the TGI (CCRF-CEM leukemia)?
A: 58.8 µM

Q: What about the GI50 (KM12 colon) of the same molecule?
A: 7.13 µM

Q: And the TGI (KM12 colon)?
A: > 100 µM

Q: And the GI50 (RPMI-8226 leukemia)?
A: 3.72 µM

Q: And the TGI (RPMI-8226 leukemia)?
A: 76.9 µM

Q: What about the GI50 (NCI-H460 lung) of the same molecule?
A: 5.04 µM

Q: And the TGI (NCI-H460 lung)?
A: > 100 µM

Q: What about the GI50 (HCT-116 colon) of the same molecule?
A: 7.35 µM

Q: What about the TGI (HCT-116 colon) of the same molecule?
A: > 100 µM

Q: What about the GI50 (HT29 colon) of the same molecule?
A: 4.48 µM

Q: And the TGI (HT29 colon)?
A: > 100 µM

Q: And the GI50 (NCI-H522 lung)?
A: > 100 µM

Q: What about the TGI (NCI-H522 lung) of the same molecule?
A: > 100 µM

Q: And the GI50 (LOX IMVI melanoma)?
A: 11.2 µM

Q: And the TGI (LOX IMVI melanoma)?
A: > 100 µM

Q: What about the GI50 (UACC-62 melanoma) of the same molecule?
A: 26.8 µM

Q: What about the TGI (UACC-62 melanoma) of the same molecule?
A: > 100 µM

Q: What about the GI50 (MDA-MB-435) of the same molecule?
A: 8.85 µM

Q: What about the TGI (MDA-MB-435) of the same molecule?
A: > 100 µM

Q: And the GI50 (HL-60(TB) leukemia)?
A: 2.25 µM

Q: And the TGI (HL-60(TB) leukemia)?
A: > 100 µM

Q: And the GI50 (SW-620 colon)?
A: 77.2 µM

Q: What about the TGI (SW-620 colon) of the same molecule?
A: > 100 µM

Q: What about the GI50 (OVCAR-3 ovarian) of the same molecule?
A: 18.8 µM

Q: What about the TGI (OVCAR-3 ovarian) of the same molecule?
A: > 100 µM

Q: What about the GI50 (SK-MEL-2 melanoma) of the same molecule?
A: 6.22 µM

Q: What about the TGI (SK-MEL-2 melanoma) of the same molecule?
A: > 100 µM

Q: What about the GI50 (CAKI-1 renal) of the same molecule?
A: 78.1 µM

Q: And the TGI (CAKI-1 renal)?
A: > 100 µM

Q: What about the GI50 (MALME-3M melanoma) of the same molecule?
A: 34.8 µM

Q: And the TGI (MALME-3M melanoma)?
A: > 100 µM

Q: What about the GI50 (MDA-MB-231 breast) of the same molecule?
A: 45.3 µM

Q: What about the TGI (MDA-MB-231 breast) of the same molecule?
A: > 100 µM

Q: What about the GI50 (IGROV1 ovarian) of the same molecule?
A: > 100 µM

Q: And the TGI (IGROV1 ovarian)?
A: > 100 µM

Q: And the GI50 (786-0 renal)?
A: 2.55 µM

Q: And the TGI (786-0 renal)?
A: 42.3 µM

Q: And the GI50 (EKVX NSCLC)?
A: 5.76 µM

Q: What about the TGI (EKVX NSCLC) of the same molecule?
A: > 100 µM

Q: And the GI50 (UACC-257 melanoma)?
A: 9.54 µM

Q: And the TGI (UACC-257 melanoma)?
A: > 100 µM

Q: And the GI50 (T-47D breast)?
A: 3.56 µM

Q: What about the TGI (T-47D breast) of the same molecule?
A: 78.6 µM

Q: And the GI50 (HOP-92 NSCLC)?
A: 3.7 µM

Q: And the TGI (HOP-92 NSCLC)?
A: > 100 µM

Q: And the GI50 (K-562 leukemia)?
A: 2.65 µM

Q: What about the TGI (K-562 leukemia) of the same molecule?
A: > 100 µM

Q: What about the GI50 (NCI-H226 lung) of the same molecule?
A: 7.74 µM

Q: What about the TGI (NCI-H226 lung) of the same molecule?
A: > 100 µM

Q: What about the GI50 (OVCAR-8 ovarian) of the same molecule?
A: 9.61 µM

Q: And the TGI (OVCAR-8 ovarian)?
A: > 100 µM

Q: And the GI50 (DU-145 prostate)?
A: > 100 µM

Q: And the TGI (DU-145 prostate)?
A: > 100 µM

Q: And the GI50 (SN12C renal)?
A: 79.4 µM

Q: What about the TGI (SN12C renal) of the same molecule?
A: > 100 µM

Q: What about the GI50 (SF-539 CNS) of the same molecule?
A: 27.7 µM

Q: What about the TGI (SF-539 CNS) of the same molecule?
A: > 100 µM

Q: And the GI50 (COLO 205 colon)?
A: 14.7 µM

Q: And the TGI (COLO 205 colon)?
A: > 100 µM

Q: What about the GI50 (SR leukemia) of the same molecule?
A: 4.81 µM

Q: And the TGI (SR leukemia)?
A: > 100 µM

Q: What about the GI50 (A549 NSCLC) of the same molecule?
A: 8.68 µM

Q: What about the TGI (A549 NSCLC) of the same molecule?
A: > 100 µM

Q: And the GI50 (SNB-75 CNS)?
A: 21.6 µM

Q: What about the TGI (SNB-75 CNS) of the same molecule?
A: > 100 µM

Q: And the GI50 (MOLT-4 leukemia)?
A: 3.93 µM

Q: What about the TGI (MOLT-4 leukemia) of the same molecule?
A: 40.9 µM

Q: What about the GI50 (OVCAR-4 ovarian) of the same molecule?
A: 15.6 µM

Q: What about the TGI (OVCAR-4 ovarian) of the same molecule?
A: > 100 µM

Q: What about the GI50 (OVCAR-5 ovarian) of the same molecule?
A: 49.1 µM

Q: And the TGI (OVCAR-5 ovarian)?
A: > 100 µM

Q: And the GI50 (SK-MEL-5 melanoma)?
A: 2.51 µM

Q: What about the TGI (SK-MEL-5 melanoma) of the same molecule?
A: 16.4 µM

Q: What about the GI50 (A498 renal) of the same molecule?
A: 15.7 µM

Q: And the TGI (A498 renal)?
A: > 100 µM

Q: And the GI50 (PC-3 prostate)?
A: 10.3 µM

Q: What about the TGI (PC-3 prostate) of the same molecule?
A: > 100 µM

Q: And the GI50 (HS 578T breast)?
A: 31.4 µM

Q: And the TGI (HS 578T breast)?
A: > 100 µM

Q: And the GI50 (SK-OV-3 ovarian)?
A: > 100 µM

Q: What about the TGI (SK-OV-3 ovarian) of the same molecule?
A: > 100 µM

Q: What about the GI50 (MCF7 breast) of the same molecule?
A: 4.31 µM

Q: What about the TGI (MCF7 breast) of the same molecule?
A: > 100 µM

Q: What about the GI50 (SK-MEL-28 melanoma) of the same molecule?
A: 37.7 µM

Q: What about the TGI (SK-MEL-28 melanoma) of the same molecule?
A: > 100 µM

Q: And the TGI (M14 melanoma)?
A: > 100 µM

Q: And the GI50 (ACHN renal)?
A: 88.6 µM

Q: And the TGI (ACHN renal)?
A: > 100 µM
